From patent publication US8530493B2, “Indolopyridines as Eg5 kinesin modulators” (4SC AG, priority 2006, dated 2013)

System: RKO p21 uninduced (proliferating) colon adenocarcinoma cells
Test: Alamar Blue cell viability assay, RKO p21 uninduced (proliferating)
Type: cell-based
Details: Homo sapiens, Table B3, anti-proliferative/cytotoxic activity, 72 hours, read-out: −log EC50 RKO p21 uninduced (proliferating) (converted)
In short: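 Viability read by Alamar Blue fluorescence (ex 544, em 590 nm), normalised to untreated wells, after 72 h, 37° C, 5% CO2 compound exposure in triplicate. Cells were uninduced (no Ponasterone A), proliferating RKO colon carcinoma p27 or p21 subclones in DMEM with 10% FCS; values are −log EC50 (mol/l).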

Row | Compound | EC50
1 | COc1cc2c3c([nH]c2cc1F)[C@@H](c1cccc(O)c1)N1C(=O)N(CCNC(C)(C)C)C(=O)[C@]1(C)C3 (racemic) [Example 256, (3aSR,10RS)-2-(2-tert-Butylamino-ethyl)-7-fluoro-10-(3-hydroxy-phenyl)-6-methoxy-3a-methyl-3a,4,9,10-tetrahydro-2,9,10a-triaza-cyclopenta[b]fluorene-1,3-dione] | ≤ 39.8 nM
2 | CCN(CCO)CCCN1C(=O)N2[C@H](c3cccc(O)c3)c3[nH]c4cc(F)c(Cl)cc4c3C[C@@]2(C)C1=O (racemic) [Example 470, (3aSR,10RS)-6-Chloro-2-{3-[ethyl-(2-hydroxy-ethyl)-amino]-propyl}-7-fluoro-10-(3-hydroxy-phenyl)-3a-methyl-3a,4,9,10-tetrahydro-2,9,10a-triaza-cyclopenta[b]fluorene-1,3-dione] | ≤ 39.8 nM
3 | CCOc1ccc2[nH]c3c(c2c1)C[C@@]1(C)C(=O)N(CCN2CCCCCC2)C(=O)N1[C@@H]3c1cccc(O)c1 (racemic) [Example 166, (3aSR,10RS)-2-(2-Azepan-1-yl-ethyl)-6-ethoxy-10-(3-hydroxy-phenyl)-3a-methyl-3a,4,9,10-tetrahydro-2,9,10a-triaza-cyclopenta[b]fluorene-1,3-dione] | 39.8 to 251 nM
4 | CC(C)N(C)CCCN1C(=O)N2[C@H](c3cccc(O)c3)c3[nH]c4ccc(OC(F)F)cc4c3C[C@@]2(C)C1=O (racemic) [Example 179, (3aSR,10RS)-6-(1,1-Difluoro-methoxy)-10-(3-hydroxy-phenyl)-2-[3-(isopropyl-methyl-amino)-propyl]-3a-methyl-3a,4,9,10-tetarhydro-2,9,10a-triaza-cyclopenta[b]fluorene-1,3-dione] | ≤ 39.8 nM
5 | C[C@@]12Cc3c([nH]c4ccc(OC(F)F)cc34)[C@@H](c3cccc(O)c3)N1C(=O)N(CCCN1CCCCC1)C2=O (racemic) [Example 239, (3aSR,10RS)-6-(1,1-Difluoro-methoxy)-10-(3-hydroxy-phenyl)-3a-methyl-2-(3-piperidin-1-yl-propyl)-3a,4,9,10-tetrahydro-2,9,10a-triaza-cyclopenta[b]fluorene-1,3-dione] | ≤ 39.8 nM
6 | CCN(C)CCCN1C(=O)N2[C@H](c3cccc(O)c3)c3[nH]c4ccc(Br)cc4c3C[C@@]2(C)C1=O (racemic) [Example 216, (3aSR,10RS)-6-Bromo-2-[3-(ethyl-methyl-amino)-propyl]-10-(3-hydroxy-phenyl)-3a-methyl-3a,4,9,10-tetrahydro-2,9,10a-triaza-cyclopenta[b]fluorene-1,3-dione] | ≤ 39.8 nM
7 | CCOc1ccc2[nH]c3c(c2c1)C[C@@]1(C)C(=O)N(CCCNCC2CC2)C(=O)N1[C@@H]3c1cccc(O)c1 (racemic) [Example 188, (3aSR,10RS)-2-[3-(Cyclopropylmethyl-amino)-propyl]-6-ethoxy-10-(3-hydroxy-phenyl)-3a-methyl-3a,4,9,10-tetrahydro-2,9,10a-triaza-cyclopenta[b]fluorene-1,3-dione] | 39.8 to 251 nM
8 | C=CCNCCN1C(=O)N2[C@H](c3cccc(O)c3)c3[nH]c4ccc(OCC)cc4c3C[C@@]2(C)C1=O (racemic) [Example 157, (3aSR,10RS)-2-(2-Allylamino-ethyl)-6-ethoxy-10-(3-hydroxy-phenyl)-3a-methyl-3a,4,9,10-tetrahydro-2,9,10a-triaza-cyclopenta[b]fluorene-1,3-dione] | ≤ 39.8 nM
9 | C[C@@]12Cc3c([nH]c4ccc(OC(F)F)cc34)[C@@H](c3cccc(O)c3)N1C(=O)N(CCNCC1CC1)C2=O (racemic) [Example 270, (3aSR,10RS)-2-[2-(Cyclopropylmethyl-amino)-ethyl]-6-(1,1-difluoro-methoxy)-10-(3-hydroxy-phenyl)-3a-methyl-3a,4,9,10-tetrahydro-2,9,10a-triaza-cyclopenta[b]fluorene-1,3-dione] | ≤ 39.8 nM
